Data reported in patent US8071654B2, “Inhibitors of thromboxane formation and action” (priority 2000, dated 2011).
pIC50: −log10 of the molar value.

What was measured:
TP receptor = target: T1, TP receptor (Homo sapiens, UniProt P21731); assay: platelet aggregation evoked by the TxA2 mimic U46619; type: cell-based
T1 construct: endogenous in cells; host or cells: washed human platelets
T1 sequence (P21731 1-343): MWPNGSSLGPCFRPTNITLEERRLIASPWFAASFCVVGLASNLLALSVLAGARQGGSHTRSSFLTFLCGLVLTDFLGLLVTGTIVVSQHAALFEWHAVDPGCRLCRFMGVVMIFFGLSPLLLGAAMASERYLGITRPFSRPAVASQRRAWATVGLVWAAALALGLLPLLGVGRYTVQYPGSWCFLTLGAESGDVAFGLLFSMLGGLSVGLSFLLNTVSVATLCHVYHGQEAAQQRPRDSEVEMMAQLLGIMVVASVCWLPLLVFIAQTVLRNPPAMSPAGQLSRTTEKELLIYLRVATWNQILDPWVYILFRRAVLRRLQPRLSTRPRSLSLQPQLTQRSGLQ
Procedure: Venous blood was obtained from healthy human subjects who had not taken NSAID's for at least two weeks. Blood was drawn into plastic syringes containing ACD. It was immediately centrifuged at 23° at 200×g for 15 min. The platelet rich plasma was transferred into fresh plastic tubes and centrifuged at 400×g for 5 min. The supernatant was discarded and the platelet sediment was resuspended in fresh medium containing NaCl (137 mM), KCl (1 mM), NaH2PO4, glucose (5.5 mM), HEPES (20 mM) and CaCl2 (1 mM) and allowed to stand at room temperature for 30 min. A platelet count was made, which determined the volume of platelet suspension needed to make up 350×10^6 cells for each measurement. The aliquot was diluted with medium to make 0.5 ml/assay/cuvette. Appropriate calibration of the aggregometer (PAP-4C) for 0% and 100% transmission was carried out through the use of a sample of platelet suspension and cell-free medium (37).
(§1) 0.5 ml of platelet suspension was added to siliconized glass tubes (four at a time) and heated with magnetic stirring to 37° for 1 min in a platelet aggregometer (PAP-4C). Either vehicle alone (ethanol, 1 μl) or hepoxilin analog was then added, followed two min later by agonist (collagen: 2 μg; PGH2: 100 ng/0.5 ml; U46619: 10 ng/0.5 ml or I-BOP: 2 ng/0.5 ml). The response was recorded for the next 5 min. In experiments where analysis of TxB2 and HHT were to be made by HPLC, the platelet suspension at the end of the experiment was diluted with ethyl acetate, 100 ng of prostaglandin B1 was added as internal standard, and the mixture was acidified to pH 3 with 0.1 N HCl. After centrifugation, the organic layer was separated, washed twice with water to neutrality, and evaporated to dryness. Half of the sample was taken and was resuspended in 1 ml ethyl acetate containing 20 μg ADAM reagent, and was left in the dark for 2 h (38). The solvent was then evaporated and the residue was acetylated with a solution of pyridine/acetic anhydride (3/1, v/v) during 16 h at 23°. The reagents were evaporated to dryness and the residue was resuspended in acetonitrile/water for HPLC analysis. In experiments where the conversion of tritiated PGH2 was to be monitored, the procedure described above was repeated with tritiated PGH2 instead of unlabeled PGH2. After extraction of the sample as described above, the radiolabeled compounds were analyzed by TLC. Dose response curves for varying amounts of test compounds were generated and the data expressed as % inhibition of collagen-induced platelet aggregation. Each point was investigated 5 times and statistical analysis of the data was carried out using Macintosh Statview statistical software.

12-LOX = target: T2, 12-LOX (Homo sapiens, UniProt P18054); assay: 12-HETE formed in collagen-treated washed human platelets (12-LOX), HPLC; type: cell-based; conditions: for 12-LOX enzyme activity (% of control values, mean ± SD): n = 3
T2 construct: endogenous in cells; host or cells: washed human platelets
T2 sequence (P18054 1-663): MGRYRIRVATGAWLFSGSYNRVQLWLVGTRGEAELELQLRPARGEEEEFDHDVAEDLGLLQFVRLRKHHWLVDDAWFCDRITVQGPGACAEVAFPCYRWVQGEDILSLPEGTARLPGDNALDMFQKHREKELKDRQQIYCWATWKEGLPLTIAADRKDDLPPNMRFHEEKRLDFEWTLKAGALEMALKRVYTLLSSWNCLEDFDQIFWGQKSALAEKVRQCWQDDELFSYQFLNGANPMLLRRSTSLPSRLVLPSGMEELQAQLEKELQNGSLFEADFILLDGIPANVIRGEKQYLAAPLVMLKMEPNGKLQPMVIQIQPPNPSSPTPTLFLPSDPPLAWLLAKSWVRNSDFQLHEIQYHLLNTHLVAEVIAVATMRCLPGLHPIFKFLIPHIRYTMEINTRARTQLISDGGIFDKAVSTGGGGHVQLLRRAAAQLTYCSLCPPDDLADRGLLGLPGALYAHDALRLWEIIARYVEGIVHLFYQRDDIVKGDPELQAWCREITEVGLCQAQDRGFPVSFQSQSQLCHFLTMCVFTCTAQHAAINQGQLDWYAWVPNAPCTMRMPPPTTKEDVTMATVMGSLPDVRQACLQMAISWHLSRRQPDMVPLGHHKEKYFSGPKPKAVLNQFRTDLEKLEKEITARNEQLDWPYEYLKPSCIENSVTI
Procedure: as §1
Measurement of eicosanoids formed by platelets during treatment with collagen or the TP receptor agonists in the presence or absence of PBT-3 was carried out by HPLC after appropriate derivatization with a fluorescent tag (anthracyl diazomethane—ADAM) which forms a fluorescent ester (44). The method was adapted to measure the following compounds: TxB2, HHT, 12-HETE and M. The platelet suspension at the end of the experiment was mixed with ethyl acetate, 100 ng of prostaglandin B1 was added as internal standard and the mixture was acidified to pH 3 with 0.1 N HCl. After centrifugation, the organic layer was separated, washed twice with water to neutrality, and evaporated to dryness. The residue was resuspended in ethyl acetate and half of the sample was taken. It was diluted to 0.2 ml with ethyl acetate containing 20 μg ADAM reagent, and was left in the dark for 2 h. The solvent was then evaporated and the residue was acetylated with a solution of pyridine/acetic anhydride (3/1, v/v) for 16 h at 23°. The reagents were evaporated to dryness and the residue was resuspended in acetonitrile/water for HPLC analysis. Dose response curves for varying amounts of test compounds were generated and the data were expressed as % inhibition of agonist-induced platelet aggregation. Each point was investigated 3 times and statistical analysis of the data was carried out using Macintosh Statview statistical software.
Analysis of the anthryl (ADAM)-acetate derivative of TxB2, HHT and 12 HETE in the extracted platelet samples was carried out on a Hewlett Packard (1100 series) HPLC to which was attached a Shimadzu fluorescent detector (RF-10AXL). The detector was operated with excitation at 364 nm, emission at 411 nm. […]

Q: What does the source list for `CCCCC/C=C\CC1CC1[C@@H](O)/C=C\C/C=C\CCCC(=O)OC` (stereo partly drawn) [PBT-3, 10(S)-hydroxy-11,12-cyclopropyl-eicosa-5Z,8Z,14Z-trienoic acid methyl ester]?
A: effect on U46619-induced aggregation in aspirin-treated platelets (TP receptor; PBT-3 added after aspirin, before U46619): blockade of the aggregation; pIC50 (TP receptor; U46619 10 ng/0.5 ml, read-out: IC50 for inhibition of aggregation evoked by U46619): 6.15; inhibition of aggregation evoked by U46619 (TP receptor; dose of 1 μg): inhibited the aggregation; 12-LOX enzyme activity (% of control values, mean ± SD) (12-LOX; PBT-3 0.05 μM): 79.4 ± 7.6 % of control; 12-LOX enzyme activity (% of control values, mean ± SD) (12-LOX; PBT-3 0.30 μM): 85.2 ± 7.4^NS % of control; 12-LOX enzyme activity (% of control values, mean ± SD) (12-LOX; PBT-3 0.60 μM): 73.0 ± 4.9 % of control; 12-LOX enzyme activity (% of control values, mean ± SD) (12-LOX; PBT-3 3.00 μM): 102.5 ± 5.7^NS % of control; inhibition of 12-LOX, in words (12-LOX; relatively large amounts of PBT-3, about 3-4 log doses greater than required to inhibit the TP receptor): Neither COX-1, COX-2,12-LOX nor Plase A2 was inhibited
